The values that follow are results of earlier work, collected in US20230304031A1, “VECTORS AND METHODS FOR IN VIVO TRANSDUCTION” (Abintus Bio, Inc., priority 2020, published 2023).

Series [1] deals with HSPC. To be noted: cited from earlier work; for HSPC mobilization (in words): as reported in the cited literature; for G-CSF-induced HSPC mobilization with NSAID: blocking of PGE2 production.
In series [2] the test system is CD34+ cells / HSPC. To be noted: cited from earlier work; for CD34+ HSPC counts in the blood: 24 hours post-injection; for median yield of CD34+ cells: 5 µg/kg/day after chemotherapy, relapsed Hodgkin's disease; for increase in the harvest of CFU-GM over baseline: 5 µg/kg/day alone for 4 days.
In series [3] the target is phosphodiesterase type 5 (PDE5) (Homo sapiens, UniProt O76074). To be noted: after oral administration; cited from earlier work.
In series [4] the test system is VLA-4. The settings on record: after SCF stimulation; cited from earlier work.
Series [5] relates to VLA-5. The settings on record: after SCF stimulation; cited from earlier work.
Series [6] relates to HSPC. The settings on record: mice / murine models; cited from earlier work.
Series [7] has as its system HSCs. To be noted: cited from earlier work.
Where [8] appears, read: 10 breast cancer patients, 0.84 ± 0.1 µg/kg/day.

Where a name gives a salt, the structure may show the parent alone. Read-outs that look alike come from different tables or passages of the source.

Turning to `c1cc(CN2CCCNCCNCCCNCC2)ccc1CN1CCCNCCNCCCNCC1` [AMD3100, reference compound], the “HSPC mobilization (in words)” value in series [1] is on record as “rapidly mobilize HSPCs in various animal models”. In series [2] (subcutaneous 240 µg/kg), the “CD34+ HSPC counts in the blood” value was “approximately 10 cells/µL”, the “peak CD34+ HSPC counts in the blood” value is “approximately 25 cells/µL” and the “time to peak CD34+ HSPC counts” value was 8 to 10 h. Besides, in series [2] (subcutaneous 480 µg/kg), the “CD34+ HSPC counts in the blood” value is “approximately 20 cells/µL”, the “peak CD34+ HSPC counts in the blood” value is “approximately 30 cells/µL” and the “time to peak CD34+ HSPC counts” value is 8 to 10 h.

`O=C(O)[C@H](Cc1ccc(OC(=O)N2CCCC2)cc1)NC(=O)[C@@H]1CCCN1S(=O)(=O)c1ccccc1` [BOP, N-(benzenesulfonyl)-L-prolyl-L-O-(1-pyrrolidinylcarbonyl)tyrosine]: the “HSPC mobilization (in words)” value in series [1] is recorded as “rapidly mobilizes long-term multi-lineage reconstituting HSPC”.

On to `C[C@@H](NCCCc1cccc(C(F)(F)F)c1)c1cccc2ccccc12` [Cinacalcet], for which the “HSPC adhesion, migration and homing” value in series [1] (pharmacological activation of CaR) is “increased adhesion of HSPCs to collagen I and fibronectin”.

Turning to `CCCCCCCCc1ccc(CCC(N)(CO)CO)cc1` [FTY720], in series [1], the “HSPC mobilization (in words)” value is “decreases steady-state mobilization of HSPCs”.

For the molecule `CCOCc1cc(OC)c(-c2ccc(C[C@H](NC(=O)c3c(F)cccc3F)C(=O)O)cc2)c(OC)c1` [Firategrast], the “HSPC mobilization (in words)” value in series [1] is “disrupt HSPC retention in the postnatal hematopoietic niche”.

`CC(=O)N[C@@H](CS)C(=O)O` [NAC, N-acetyl-L-cysteine]: the “HSPC mobilization (in words)” value in series [1] is “significantly abrogate UDP-glc-induced HSPC mobilization”.

For the molecule `CCCc1nn(C)c2c(=O)[nH]c(-c3cc(S(=O)(=O)N4CCN(C)CC4)ccc3OCC)nc12` [Sildenafil citrate], in series [3], the “time of peak activity” value was 2 h.

As to `CC(=O)Oc1ccccc1C(=O)O` [aspirin], the “G-CSF-induced HSPC mobilization with NSAID” value in series [1] is on record as “doubled”.

Regarding `O=P1(N(CCCl)CCCl)NCCCO1` (centres unmarked) [cyclophosphamide, reference compound], the “CD34+ cell yields” value in series [2] (doses of 4-7 g/m2) was ~3.62 × 10^6 cells/kg. For the same molecule, the “increase in the number of CFU-GM” value in series [2] (single dose of 4 g/m^2) is listed as “up to 25 fold”.

For the molecule `CC(C)Cc1ccc(C(C)C(=O)O)cc1` (centres unmarked) [ibuprofen], the “G-CSF-induced HSPC mobilization with NSAID” value in series [1] is on record as “doubled”.

Take `COc1ccc2c(c1)c(CC(=O)O)c(C)n2C(=O)c1ccc(Cl)cc1` [indomethacin]: the “G-CSF-induced HSPC mobilization with NSAID” value in series [1] is given as “doubled”.

Consider “GM-CSF: granulocyte-macrophage colony stimulating factor [reference compound]”, for which, in series [2], the “median yield of CD34+ cells” value was 5.6 × 10^6 CD34+ cells/kg and the “increase in the harvest of CFU-GM over baseline” value was 33.7 fold. Besides, the “CFU-GM content of mobilized HSPC populations” value in series [2] (250 µg/m2 versus 125 µg/m2) is “superior yield”. Further, the “increased HSPC in the peripheral blood” value in series [2] (4-64 µg/kg/day continuous intravenous infusion up to 7 days, cancer patients) was 4- to 18 fold.

As to “Natalizumab: humanized monoclonal anti-VLA-4 antibody [reference compound]”, in series [2] (patients receiving infusion therapy for multiple sclerosis), the “increase in circulating CD34+ cells” value was “approximately 3 fold”.

Consider SCF: Stem Cell Factor, for which, in series [4], the “increase of VLA-4 expression on CD34+ HSPC” value is “approximately 2 fold”. Further, the “increase of VLA-5 expression on CD34+ HSPC” value in series [5] was 4- to 10 fold.

Consider “vedolizumab: humanized monoclonal antibody against the α4β7 integrin”, for which the “HSPC mobilization (in words)” value in series [6] was “Reduction in plasma CXCL12 levels, accompanied by reduced HSPC egress”.

B1: G-CSF: hematopoietic growth factor (protein, UniProt P09919 31-207, looked up)
Granulocyte …: TPLGPASSLPQSFLLKCLEQVRKIQGDGAALQEKLVSECATYKLCHPEELVLLGHSLGIPWAPLSSCPSQALQLAGCLSQLHSGLFLYQGLLQALEGISPELGPTLDTLQLDVADFATTIWQQMEELGMAPALQPTQGAMPAFASAFQRRAGGVLVASHLQSFLEVSYRVLRHLAQP
Take B1: in series [2], the “median yield of CD34+ cells” value was 7.6 × 10^6 CD34+ cells/kg and the “increase in the harvest of CFU-GM over baseline” value is 35.6 fold. For the same molecule, in series [2] (5 µg/kg/day), the “increase in CD34+ content of peripheral blood over baseline” value is “sevenfold”. Moreover, the median harvest in series [2] (10 µg/kg/day, 34 patients with Hodgkin's disease or NHL) is on record as 2.8 × 10^6 CD34+ cells/kg. Moreover, in series [2] (10 µg/kg/day), the “CD34+ HSPC yield” value is reported as 11.32 × 10^7 /kg cells and the “increase in CD34+ content of peripheral blood over baseline” value was 28 fold. Also, in series [2] (12 µg/kg/day for 6 days, 17 patients with non-myeloid malignant disorders), the mean total harvested is 33 × 10^4 CFU-GM/kg. In addition, the “CD34+ HSPC yield” value in series [2] (24 µg/kg/day) is given as 48.25 × 10^7 /kg cells. Moreover, in series [2] (setting [8]), the “mean yield after the first leukapheresis” value is reported as 0.77 × 10^6 CD34+ cells/kg and the “mean yield after the second leukapheresis” value is given as 1.42 × 10^6 CD34+ cells/kg. The “increase in HSPC over baseline” value in series [2] (G-CSF 5 µg/kg/day for a further 5 days after 7 days of GM-CSF 5 µg/kg/day) is 80 fold. Also, the “mobilized PBPC cells expressing CD38” value in series [2] (by mobilization regimen) is listed as 88%. For the same molecule, the mean harvest yield in series [2] (healthy subjects, G-CSF 5 plus GM-CSF 5 µg/kg/day versus G-CSF 10 µg/kg/day alone) is reported as 119 × 10^6 CD34+ cells/kg. For the same molecule, the “numbers of HSCs in the bloodstream” value in series [7] (1 day after 4 consecutive days of injections) is 3,400 HSCs/mouse. In addition, in series [7] (regimens as worded), the “HSC mobilization (comparison in words)” value is “not significantly better than the 2-h Viagra + AMD3100 mobilization protocol”.
